Experimental data taken from US9242987B2, “Heterocyclyl pyrazolopyrimidine analogues as JAK inhibitors” (Cellzome Limited, priority 2009, dated 2016).
pIC50: −log10 of the molar value.

How the values were obtained:
JAK2 = molecular target: T1, JAK2 (Homo sapiens, UniProt O60674); assay: Kinobeads assay, JAK2; format: binding; details: mixed Molt4/Ramos cell lysate, dot blot detection
T1 construct: endogenous in cells; host or cells: Mixed Molt4/Ramos lysate (1:2)
Outline: (§1)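 Lysate from Molt4 and Ramos cells combined 1:2 at 10 mg/mL total protein met test compound and an aminopyrido-pyrimidine affinity matrix for 3 h in the cold. Captured JAK2 and JAK3, after elution, were measured by specific-antibody dot blot on an infrared system; dose-response curves yielded IC50.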

JAK3 = molecular target: T2, JAK3 (Homo sapiens, UniProt P52333); assay: Kinobeads assay, JAK3; format: binding; details: mixed Molt4/Ramos cell lysate, dot blot detection
T2 construct: endogenous in cells; host or cells: Mixed Molt4/Ramos lysate (1:2)
T2 sequence (P52333 1-1124): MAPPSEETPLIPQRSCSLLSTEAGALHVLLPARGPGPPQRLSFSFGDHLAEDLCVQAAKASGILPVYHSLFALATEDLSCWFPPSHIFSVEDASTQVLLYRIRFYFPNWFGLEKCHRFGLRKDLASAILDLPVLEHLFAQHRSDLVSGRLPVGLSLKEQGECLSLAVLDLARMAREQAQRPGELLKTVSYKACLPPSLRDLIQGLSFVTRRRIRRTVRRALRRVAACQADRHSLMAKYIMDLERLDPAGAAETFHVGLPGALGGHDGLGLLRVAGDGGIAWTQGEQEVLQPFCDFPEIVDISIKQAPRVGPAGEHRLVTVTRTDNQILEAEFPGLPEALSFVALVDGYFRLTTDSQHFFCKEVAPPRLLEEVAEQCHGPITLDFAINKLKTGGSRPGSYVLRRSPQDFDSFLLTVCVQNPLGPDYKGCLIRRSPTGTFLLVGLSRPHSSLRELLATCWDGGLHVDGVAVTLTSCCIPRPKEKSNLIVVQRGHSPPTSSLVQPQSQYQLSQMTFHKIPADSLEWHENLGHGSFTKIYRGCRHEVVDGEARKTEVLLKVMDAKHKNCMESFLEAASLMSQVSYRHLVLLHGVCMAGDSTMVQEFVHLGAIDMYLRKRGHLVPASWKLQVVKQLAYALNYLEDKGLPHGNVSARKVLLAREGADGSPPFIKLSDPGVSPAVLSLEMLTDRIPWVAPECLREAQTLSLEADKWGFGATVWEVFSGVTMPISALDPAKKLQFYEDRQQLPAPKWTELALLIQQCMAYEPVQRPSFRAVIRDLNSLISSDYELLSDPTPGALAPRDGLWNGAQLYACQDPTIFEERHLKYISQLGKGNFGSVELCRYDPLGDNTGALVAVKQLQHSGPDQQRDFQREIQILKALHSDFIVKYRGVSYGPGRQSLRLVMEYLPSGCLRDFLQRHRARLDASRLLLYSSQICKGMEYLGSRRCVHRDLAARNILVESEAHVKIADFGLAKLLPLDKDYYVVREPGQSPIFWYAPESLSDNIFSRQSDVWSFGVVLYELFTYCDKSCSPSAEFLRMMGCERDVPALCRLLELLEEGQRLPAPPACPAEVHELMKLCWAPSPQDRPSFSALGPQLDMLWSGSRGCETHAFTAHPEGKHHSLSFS
Outline: as §1

T1 sequence (O60674 whole entry): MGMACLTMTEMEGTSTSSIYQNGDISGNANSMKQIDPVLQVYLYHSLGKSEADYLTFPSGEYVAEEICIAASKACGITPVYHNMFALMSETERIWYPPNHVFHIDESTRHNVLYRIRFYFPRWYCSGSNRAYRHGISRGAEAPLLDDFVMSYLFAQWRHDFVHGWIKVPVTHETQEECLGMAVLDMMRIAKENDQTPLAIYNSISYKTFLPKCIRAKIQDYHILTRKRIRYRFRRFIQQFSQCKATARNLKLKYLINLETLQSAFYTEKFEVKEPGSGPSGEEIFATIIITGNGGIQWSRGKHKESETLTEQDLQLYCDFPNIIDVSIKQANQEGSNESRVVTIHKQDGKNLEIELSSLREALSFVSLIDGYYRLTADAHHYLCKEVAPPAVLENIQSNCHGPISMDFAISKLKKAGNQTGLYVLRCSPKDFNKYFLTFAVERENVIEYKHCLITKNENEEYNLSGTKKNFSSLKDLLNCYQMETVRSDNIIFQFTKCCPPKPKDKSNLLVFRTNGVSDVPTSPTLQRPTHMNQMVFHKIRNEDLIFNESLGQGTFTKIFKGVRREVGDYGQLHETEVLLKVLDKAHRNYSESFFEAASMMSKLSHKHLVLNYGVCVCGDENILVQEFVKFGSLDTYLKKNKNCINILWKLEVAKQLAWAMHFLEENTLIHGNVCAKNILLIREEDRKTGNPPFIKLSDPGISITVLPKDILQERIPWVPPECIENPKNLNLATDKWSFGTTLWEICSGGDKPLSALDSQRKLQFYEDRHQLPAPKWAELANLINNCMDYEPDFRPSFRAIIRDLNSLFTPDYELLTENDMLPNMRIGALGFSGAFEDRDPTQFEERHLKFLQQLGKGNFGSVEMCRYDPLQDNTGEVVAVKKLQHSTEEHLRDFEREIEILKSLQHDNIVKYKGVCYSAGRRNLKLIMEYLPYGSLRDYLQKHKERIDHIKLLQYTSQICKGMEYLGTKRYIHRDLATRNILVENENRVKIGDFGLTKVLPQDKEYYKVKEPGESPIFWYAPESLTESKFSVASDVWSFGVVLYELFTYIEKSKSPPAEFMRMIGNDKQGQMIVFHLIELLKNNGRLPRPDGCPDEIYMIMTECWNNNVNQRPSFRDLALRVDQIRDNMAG

| pIC50 (JAK2) | pIC50 (JAK3) | SMILES |
| --- | --- | --- |
| ≤ 5.00 | 6.00 to 7.00 | Cn1cc(Nc2ncc3cnn(Cc4cccc(C(F)(F)F)c4)c3n2)cn1 [Example 66, N-(1-Methyl-1H-pyrazol-4-yl)-1-(3-(trifluoromethyl)benzyl)-1H-pyrazolo[3,4-d]pyrimidin-6-amine] |
| ≤ 5.00 | > 7.00 | CO[C@@H](C)COc1cccc(Cn2ncc3cnc(Nc4cnn(C)c4)nc32)c1 [Example 171, (S)-1-(3-(2-Methoxypropoxy)benzyl)-N-(1-methyl-1H-pyrazol-4-yl)-1H-pyrazolo[3,4-d]pyrimidin-6-amine] |
| 5.00 to 6.00 | 6.00 to 7.00 | Cn1cc(Nc2ncc3cnn(Cc4ccccc4OCC4CC4)c3n2)cn1 [Example 173, 1-(2-(Cyclopropylmethoxy)benzyl)-N-(1-methyl-1H-pyrazol-4-yl)-1H-pyrazolo[3,4-d]pyrimidin-6-amine] |
| ≤ 5.00 | > 7.00 | COc1nn(CC(F)F)cc1Nc1ncc2cnn(Cc3ccccc3C#N)c2n1 [Example 24, 2-((6-(1-(2,2-Difluoroethyl)-3-methoxy-1H-pyrazol-4-ylamino)-1H-pyrazolo[3,4-d]pyrimidin-1-yl)methyl)benzonitrile] |
| ≤ 5.00 | 6.00 to 7.00 | COc1nn(CC(F)F)cc1Nc1ncc2cnn(-c3ccc(S(N)(=O)=O)cc3)c2n1 [Example 71, 4-(6-((1-(2,2-Difluoroethyl)-3-methoxy-1H-pyrazol-4-yl)amino)-1H-pyrazolo[3,4-d]pyrimidin-1-yl)benzenesulfonamide] |
| 6.00 to 7.00 | > 7.00 | Fc1ccccc1Cn1ncc2cnc(Nc3cnn(CCN4CCOCC4)c3)nc21 [Example 124, 1-(2-Fluorobenzyl)-N-(1-(2-morpholinoethyl)-1H-pyrazol-4-yl)-1H-pyrazolo[3,4-d]pyrimidin-6-amine] |
| 5.00 to 6.00 | > 7.00 | N#Cc1ccccc1Cn1ncc2cnc(Nc3cnn(CC(F)F)c3)nc21 [Example 39, 2-((6-(1-(2,2-Difluoroethyl)-1H-pyrazol-4-ylamino)-1H-pyrazolo[3,4-d]pyrimidin-1-yl)methyl)benzonitrile] |
| 5.00 to 6.00 | 6.00 to 7.00 | Cc1nn(CC(F)F)cc1Nc1ncc2cnn(Cc3ccccc3C(N)=O)c2n1 [Example 43, 2-((6-(1-(2,2-Difluoroethyl)-3-methyl-1H-pyrazol-4-ylamino)-1H-pyrazolo[3,4-d]pyrimidin-1-yl)methyl)benzamide] |
| 6.00 to 7.00 | > 7.00 | Cn1cc(Nc2ncc3cnn(Cc4ccccc4F)c3n2)cc1C(=O)NCC#N [Example 245, N-(Cyanomethyl)-4-((1-(2-fluorobenzyl)-1H-pyrazolo[3,4-d]pyrimidin-6-yl)amino)-1-methyl-1H-pyrrole-2-carboxamide] |
| 6.00 to 7.00 | > 7.00 | CCN(CC)CCn1cc(Nc2ncc3cnn(Cc4ccccc4F)c3n2)cn1 [Example 123, N-(1-(2-(Diethylamino)ethyl)-1H-pyrazol-4-yl)-1-(2-fluorobenzyl)-1H-pyrazolo[3,4-d]pyrimidin-6-amine] |
| 5.00 to 6.00 | 6.00 to 7.00 | FC(F)Cn1cc(Nc2ncc3cnn(Cc4ccccc4C4CC4)c3n2)cn1 [Example 161, 1-(2-Cyclopropylbenzyl)-N-(1-(2,2-difluoroethyl)-1H-pyrazol-4-yl)-1H-pyrazolo[3,4-d]pyrimidin-6-amine] |
| ≤ 5.00 | > 7.00 | Cn1cc(Nc2ncc3cnn(Cc4cccc(-c5ccncc5)c4)c3n2)cn1 [Example 230, N-(1-Methyl-1H-pyrazol-4-yl)-1-(3-(pyridin-4-yl)benzyl)-1H-pyrazolo[3,4-d]pyrimidin-6-amine] |
| 6.00 to 7.00 | > 7.00 | Cn1cc(Nc2ncc3cnn(Cc4cc(Cl)ccc4F)c3n2)cn1 [Example 64] |
| 5.00 to 6.00 | 6.00 to 7.00 | Cn1cc(Nc2ncc3cnn(-c4cccc(S(N)(=O)=O)c4)c3n2)cn1 [Example 122, 3-(6-((1-Methyl-1H-pyrazol-4-yl)amino)-1H-pyrazolo[3,4-d]pyrimidin-1-yl)benzenesulfonamide] |
| ≤ 5.00 | 6.00 to 7.00 | COCCOc1cccc(Cn2ncc3cnc(Nc4cnn(CC(F)F)c4)nc32)c1 [Example 176, N-(1-(2,2-Difluoroethyl)-1H-pyrazol-4-yl)-1-(3-(2-methoxyethoxy)benzyl)-1H-pyrazolo[3,4-d]pyrimidin-6-amine] |
| 6.00 to 7.00 | > 7.00 | CNC(=O)Cn1cc(Nc2ncc3cnn(Cc4ccccc4C#N)c3n2)cn1 [Example 13, 2-(4-(1-(2-Cyanobenzyl)-1H-pyrazolo[3,4-d]pyrimidin-6-ylamino)-1H-pyrazol-1-yl)-N-methylacetamide] |
| 5.00 to 6.00 | 6.00 to 7.00 | NS(=O)(=O)c1ccc(-n2ncc3cnc(Nc4cnn(CC(F)F)c4)nc32)cc1 [Example 127, 4-(6-((1-(2,2-Difluoroethyl)-1H-pyrazol-4-yl)amino)-1H-pyrazolo[3,4-d]pyrimidin-1-yl)benzenesulfonamide] |
| 5.00 to 6.00 | > 7.00 | Cn1cc(Nc2ncc3cnn(Cc4cccc(Cl)c4F)c3n2)cn1 [Example 72, 1-(3-Chloro-2-fluorobenzyl)-N-(1-methyl-1H-pyrazol-4-yl)-1H-pyrazolo[3,4-d]pyrimidin-6-amine] |
| 5.00 to 6.00 | 6.00 to 7.00 | Cn1cc(Nc2ncc3cnn(-c4ccc(S(C)(=O)=O)cc4)c3n2)cn1 [Example 61, N-(1-methyl-1H-pyrazol-4-yl)-1-(4-(methylsulfonyl)phenyl)-1H-pyrazolo[3,4-d]pyrimidin-6-amine] |
| 5.00 to 6.00 | 6.00 to 7.00 | CC(C)c1ccccc1Cn1ncc2cnc(Nc3cnn(C)c3)nc21 [Example 101, 1-(2-Isopropylbenzyl)-N-(1-methyl-1H-pyrazol-4-yl)-1H-pyrazolo[3,4-d]pyrimidin-6-amine] |
| ≤ 5.00 | 6.00 to 7.00 | Cn1cc(Nc2ncc3cnn(Cc4ccc(F)cc4)c3n2)cn1 [Example 99, 1-(4-Fluorobenzyl)-N-(1-methyl-1H-pyrazol-4-yl)-1H-pyrazolo[3,4-d]pyrimidin-6-amine] |
| ≤ 5.00 | > 7.00 | Cc1nn(CC(F)F)cc1Nc1ncc2cnn(Cc3ccccc3C#N)c2n1 [Example 22, 2-((6-(1-(2,2-Difluoroethyl)-3-methyl-1H-pyrazol-4-ylamino)-1H-pyrazolo[3,4-d]pyrimidin-1-yl)methyl)benzonitrile] |
| 5.00 to 6.00 | > 7.00 | COc1ccc(F)c(Cn2ncc3cnc(Nc4cnn(C)c4)nc32)c1F [Example 159, 1-(2,6-Difluoro-3-methoxybenzyl)-N-(1-methyl-1H-pyrazol-4-yl)-1H-pyrazolo[3,4-d]pyrimidin-6-amine] |
| 5.00 to 6.00 | > 7.00 | Fc1cccc(F)c1Cn1ncc2cnc(Nc3cnn(CC(F)F)c3)nc21 [Example 160, 1-(2,6-Difluorobenzyl)-N-(1-(2,2-difluoroethyl)-1H-pyrazol-4-yl)-1H-pyrazolo[3,4-d]pyrimidin-6-amine] |
| 6.00 to 7.00 | > 7.00 | Cn1cc(Nc2ncc3cnn(Cc4cccc(Cl)c4)c3n2)cn1 [Example 70, 1-(3-Chlorobenzyl)-N-(1-methyl-1H-pyrazol-4-yl)-1H-pyrazolo[3,4-d]pyrimidin-6-amine] |
| ≤ 5.00 | 6.00 to 7.00 | COc1nn(CC(F)(F)F)cc1Nc1ncc2cnn(Cc3ccccc3C#N)c2n1 [Example 38] |
| 5.00 to 6.00 | > 7.00 | Cn1ccc(Nc2ncc3cnn(Cc4ccccc4F)c3n2)c1 [Example 241, 1-(2-Fluorobenzyl)-N-(1-methyl-1H-pyrrol-3-yl)-1H-pyrazolo[3,4-d]pyrimidin-6-amine] |
| 6.00 to 7.00 | > 7.00 | Cn1cc(Nc2ncc3cnn(Cc4c(F)cccc4NS(C)(=O)=O)c3n2)cn1 [Example 142] |
| 6.00 to 7.00 | > 7.00 | CN(C)C(=O)c1cc(Nc2ncc3cnn(Cc4ccccc4F)c3n2)cn1C [Example 246, 4-((1-(2-Fluorobenzyl)-1H-pyrazolo[3,4-d]pyrimidin-6-yl)amino)-N,N,1-trimethyl-1H-pyrrole-2-carboxamide] |
| 6.00 to 7.00 | > 7.00 | Cc1ccc(F)cc1Cn1ncc2cnc(Nc3cnn(C)c3)nc21 [Example 116] |
